Patent US11382328B2, “Rapid drug discovery methods for pathogen inactivation” (priority 2019, dated 2022)

System: E. coli strain W3110
Experiment: Synergy assays: Biolog chemical sensitivity panels with Group IB metal, coefficient of drug interaction (CDI) from relative growth
Assay type: cell-based
Settings: for CDI (coefficient of drug interaction), copper mixed with biocide: Copper (mM) section; for CDI (coefficient of drug interaction), gold + biocide: Gold (μM)
[1] = Copper (mM), 1st of 3 copper concentrations (head line not shown), biocide concentration 1 of 4, E. coli
[2] = Copper (mM), 1st of 3 copper concentrations (head line not shown), biocide concentration 2 of 4, E. coli
[3] = Copper (mM), 1st of 3 copper concentrations (head line not shown), biocide concentration 3 of 4, E. coli
[4] = Copper (mM), 1st of 3 copper concentrations (head line not shown), biocide concentration 4 of 4, E. coli
[5] = Copper (mM), 2nd of 3 copper concentrations (head line not shown), biocide concentration 1 of 4, E. coli
[6] = Copper (mM), 2nd of 3 copper concentrations (head line not shown), biocide concentration 2 of 4, E. coli
[7] = Copper (mM), 2nd of 3 copper concentrations (head line not shown), biocide concentration 3 of 4, E. coli
[8] = Copper (mM), 2nd of 3 copper concentrations (head line not shown), biocide concentration 4 of 4, E. coli
[9] = Copper (mM), 3rd of 3 copper concentrations (head line not shown), biocide concentration 1 of 4, E. coli
[10] = Copper (mM), 3rd of 3 copper concentrations (head line not shown), biocide concentration 2 of 4, E. coli
[11] = Copper (mM), 3rd of 3 copper concentrations (head line not shown), biocide concentration 3 of 4, E. coli
[12] = Copper (mM), 3rd of 3 copper concentrations (head line not shown), biocide concentration 4 of 4, E. coli
[13] = Gold section of Table 5, first of three gold concentrations (μM, value not given), biocide concentration 3 of 4
[14] = Gold section of Table 5, first of three gold concentrations (μM, value not given), biocide concentration 4 of 4
[15] = Gold section of Table 5, second of three gold concentrations (μM, value not given), biocide concentration 3 of 4
[16] = Gold section of Table 5, second of three gold concentrations (μM, value not given), biocide concentration 4 of 4
[17] = Gold section of Table 5, third of three gold concentrations (μM, value not given), biocide concentration 3 of 4
[18] = Gold section of Table 5, third of three gold concentrations (μM, value not given), biocide concentration 4 of 4
[19] = Silver 0.5 μM, biocide concentration 1 of 4
[20] = Silver 0.5 μM, biocide concentration 2 of 4
[21] = Silver 0.5 μM, biocide concentration 3 of 4
[22] = Silver 0.5 μM, biocide concentration 4 of 4
[23] = Silver 1.0 μM, biocide concentration 1 of 4
[24] = Silver 1.0 μM, biocide concentration 2 of 4
[25] = Silver 1.0 μM, biocide concentration 3 of 4
[26] = Silver 1.0 μM, biocide concentration 4 of 4
[27] = Silver 5.0 μM, biocide concentration 3 of 4
[28] = Silver 5.0 μM, biocide concentration 4 of 4
[29] = 1st of 3 copper concentrations (value not shown), 3rd of four biocide concentrations
[30] = 1st of 3 copper concentrations (value not shown), 4th of four biocide concentrations
[31] = 2nd of 3 copper concentrations (value not shown), 3rd of four biocide concentrations
[32] = 2nd of 3 copper concentrations (value not shown), 4th of four biocide concentrations
[33] = 3rd of 3 copper concentrations (value not shown), 3rd of four biocide concentrations
[34] = 3rd of 3 copper concentrations (value not shown), 4th of four biocide concentrations
[35] = first of 3 gold concentrations, biocide concentration 3 of 4
[36] = first of 3 gold concentrations, biocide concentration 4 of 4
[37] = second of 3 gold concentrations, biocide concentration 3 of 4
[38] = second of 3 gold concentrations, biocide concentration 4 of 4
[39] = third of 3 gold concentrations, biocide concentration 3 of 4
[40] = third of 3 gold concentrations, biocide concentration 4 of 4

SMILES: O=S(=O)(F)Cc1ccccc1 [PMSF]
- CDI (coefficient of drug interaction) [1]: 0.76
- CDI (coefficient of drug interaction) [2]: 0.71
- CDI (coefficient of drug interaction) [3]: 0.62
- CDI (coefficient of drug interaction) [4]: 0.71
- CDI (coefficient of drug interaction) [5]: 0.59
- CDI (coefficient of drug interaction) [6]: 0.58
- CDI (coefficient of drug interaction) [7]: 0.37
- CDI (coefficient of drug interaction) [8]: 0.46
- CDI (coefficient of drug interaction) [9]: 0.41
- CDI (coefficient of drug interaction) [10]: 0.42
- CDI (coefficient of drug interaction) [11]: 0.34
- CDI (coefficient of drug interaction) [12]: 0.38
- CDI (coefficient of drug interaction) (Gold section of Table 5, first of three gold concentrations (μM, value not given), biocide concentration 1 of 4): 1.07
- CDI (coefficient of drug interaction) (Gold section of Table 5, first of three gold concentrations (μM, value not given), biocide concentration 2 of 4): 0.96
- CDI (coefficient of drug interaction) [13]: 0.93
- CDI (coefficient of drug interaction) [14]: 0.74
- CDI (coefficient of drug interaction) (Gold section of Table 5, second of three gold concentrations (μM, value not given), biocide concentration 1 of 4): 1.03
- CDI (coefficient of drug interaction) (Gold section of Table 5, second of three gold concentrations (μM, value not given), biocide concentration 2 of 4): 1.05
- CDI (coefficient of drug interaction) [15]: 1.11
- CDI (coefficient of drug interaction) [16]: 0.85
- CDI (coefficient of drug interaction) (Gold section of Table 5, third of three gold concentrations (μM, value not given), biocide concentration 1 of 4): 1.07
- CDI (coefficient of drug interaction) (Gold section of Table 5, third of three gold concentrations (μM, value not given), biocide concentration 2 of 4): 1.16
- CDI (coefficient of drug interaction) [17]: 1.21
- CDI (coefficient of drug interaction) [18]: 2.21
- CDI [19]: 0.91
- CDI [20]: 0.92
- CDI [21]: 1.10
- CDI [22]: 0.35
- CDI [23]: 1.03
- CDI [24]: 1.10
- CDI [25]: 1.06
- CDI [26]: 0.55
- CDI [27]: 1.25
- CDI [28]: 0.60

SMILES: Nc1n[nH]c(N)n1 [guanazole]
- CDI (coefficient of drug interaction), copper mixed with biocide [29]: Tox
- CDI (coefficient of drug interaction), copper mixed with biocide [30]: Tox
- CDI (coefficient of drug interaction), copper mixed with biocide [31]: Tox
- CDI (coefficient of drug interaction), copper mixed with biocide [32]: Tox
- CDI (coefficient of drug interaction), copper mixed with biocide [33]: Tox
- CDI (coefficient of drug interaction), copper mixed with biocide [34]: Tox
- CDI (coefficient of drug interaction) [13]: Tox
- CDI (coefficient of drug interaction) [14]: Tox
- CDI (coefficient of drug interaction) [15]: Tox
- CDI (coefficient of drug interaction) [16]: Tox
- CDI (coefficient of drug interaction) [17]: Tox
- CDI (coefficient of drug interaction) [18]: Tox
- CDI [21]: Tox
- CDI [22]: Tox
- CDI [25]: Tox
- CDI [26]: Tox
- CDI [27]: Tox
- CDI [28]: Tox

SMILES: CCCCC(CC)CNC(=N)NC(=N)NCCCCCCNC(=N)NC(=N)NCC(CC)CCCC (stereo not shown) [alexidine]
- CDI (coefficient of drug interaction), copper mixed with biocide [29]: Tox
- CDI (coefficient of drug interaction), copper mixed with biocide [30]: Tox
- CDI (coefficient of drug interaction), copper mixed with biocide [31]: Tox
- CDI (coefficient of drug interaction), copper mixed with biocide [32]: Tox
- CDI (coefficient of drug interaction), copper mixed with biocide [33]: Tox
- CDI (coefficient of drug interaction), copper mixed with biocide [34]: Tox
- CDI (coefficient of drug interaction) [13]: Tox
- CDI (coefficient of drug interaction) [14]: Tox
- CDI (coefficient of drug interaction) [15]: Tox
- CDI (coefficient of drug interaction) [16]: Tox
- CDI (coefficient of drug interaction) [17]: Tox
- CDI (coefficient of drug interaction) [18]: Tox
- CDI (coefficient of drug interaction), silver + biocide (Silver 0.5 μM, 3rd of four biocide concentrations, E. coli): Tox
- CDI (coefficient of drug interaction), silver + biocide (Silver 0.5 μM, 4th of four biocide concentrations, E. coli): Tox
- CDI (coefficient of drug interaction), silver + biocide (Silver 1.0 μM, 3rd of four biocide concentrations, E. coli): Tox
- CDI (coefficient of drug interaction), silver + biocide (Silver 1.0 μM, 4th of four biocide concentrations, E. coli): Tox
- CDI (coefficient of drug interaction), silver + biocide (Silver 5.0 μM, 3rd of four biocide concentrations, E. coli): Tox
- CDI (coefficient of drug interaction), silver + biocide (Silver 5.0 μM, 4th of four biocide concentrations, E. coli): Tox

SMILES: Cl.N[C@@H](CCl)C(=O)O [β-Chloro-L-alanine HCl, β-chloro-L-alanine hydrochloride]
- CDI [21]: Tox
- CDI [22]: Tox
- CDI [25]: Tox
- CDI [26]: Tox
- CDI [27]: Tox
- CDI [28]: Tox

SMILES: CCCCCCCC(=O)[O-].[Na+] [sodium caprylate]
- CDI (coefficient of drug interaction) [4]: Tox
- CDI (coefficient of drug interaction) [8]: Tox
- CDI (coefficient of drug interaction) [12]: Tox
- CDI (coefficient of drug interaction), gold + biocide [35]: Tox
- CDI (coefficient of drug interaction), gold + biocide [36]: Tox
- CDI (coefficient of drug interaction), gold + biocide [37]: Tox
- CDI (coefficient of drug interaction), gold + biocide [38]: Tox
- CDI (coefficient of drug interaction), gold + biocide [39]: Tox
- CDI (coefficient of drug interaction), gold + biocide [40]: Tox
- CDI [21]: Tox
- CDI [22]: Tox
- CDI [25]: Tox
- CDI [26]: Tox
- CDI [27]: Tox
- CDI [28]: Tox

SMILES: N#CC(C#N)=NNc1cccc(Cl)c1 [CCCP, Carbonyl cyanide m-chlorophenylhydrazone]
- CDI (coefficient of drug interaction) [4]: Tox
- CDI (coefficient of drug interaction) [8]: Tox
- CDI (coefficient of drug interaction) [12]: Tox
- CDI [22]: Tox
- CDI [26]: Tox
- CDI [28]: Tox

SMILES: NC(CO)C(=O)NO (racemic) [D,L-serine hydroxamate]
- CDI (coefficient of drug interaction) [1]: 0.98
- CDI (coefficient of drug interaction) [2]: 0.94
- CDI (coefficient of drug interaction) [3]: 1.13
- CDI (coefficient of drug interaction) [4]: Tox
- CDI (coefficient of drug interaction) [5]: 0.77
- CDI (coefficient of drug interaction) [6]: 0.78
- CDI (coefficient of drug interaction) [7]: 1.03
- CDI (coefficient of drug interaction) [8]: 3.47
- CDI (coefficient of drug interaction) [9]: 0.62
- CDI (coefficient of drug interaction) [10]: 0.66
- CDI (coefficient of drug interaction) [11]: 1.18
- CDI (coefficient of drug interaction) [12]: Tox
- CDI (coefficient of drug interaction), gold + biocide (first of 3 gold concentrations, biocide concentration 1 of 4): 1.04
- CDI (coefficient of drug interaction), gold + biocide (first of 3 gold concentrations, biocide concentration 2 of 4): 0.95
- CDI (coefficient of drug interaction), gold + biocide [35]: 1.45
- CDI (coefficient of drug interaction), gold + biocide [36]: 0.71
- CDI (coefficient of drug interaction), gold + biocide (second of 3 gold concentrations, biocide concentration 1 of 4): 1.02
- CDI (coefficient of drug interaction), gold + biocide (second of 3 gold concentrations, biocide concentration 2 of 4): 1.00
- CDI (coefficient of drug interaction), gold + biocide [37]: 1.22
- CDI (coefficient of drug interaction), gold + biocide [38]: Tox
- CDI (coefficient of drug interaction), gold + biocide (third of 3 gold concentrations, biocide concentration 1 of 4): 0.96
- CDI (coefficient of drug interaction), gold + biocide (third of 3 gold concentrations, biocide concentration 2 of 4): 0.94
- CDI (coefficient of drug interaction), gold + biocide [39]: 1.00
- CDI (coefficient of drug interaction), gold + biocide [40]: Tox
- CDI [19]: 0.90
- CDI [20]: 0.66
- CDI [21]: 0.31
- CDI [22]: Tox
- CDI [23]: 0.89
- CDI [24]: 0.77
- CDI [25]: 0.62
- CDI [26]: Tox
- CDI (Silver 5.0 μM, biocide concentration 1 of 4): 0.82
- CDI (Silver 5.0 μM, biocide concentration 2 of 4): 0.61
- CDI [27]: 0.53
- CDI [28]: Tox
